Test results reported in patent US9115092B2, “Substituted quinazoline and pyrido-pyrimidine derivatives” (Asana Biosciences, LLC, priority 2010, dated 2015).

Tests used:
[1] = molecular target: T1, PI3Kα (wild-type), P110/P85α (Homo sapiens, UniProt P42336); assay: PI3 Kinase TR-FRET assay, PI3Kα (wild-type); assay type: biochemical
T1 construct: made in house; host or cells: SF9 insect cells
How it was run: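 TR-FRET read-out of PIP3 formation via biotin-PIP3 displacement (665/615 nm ratio) gave IC50 curves. Enzyme: 5 ng wild-type P110/P85α from Sf9 cells, 60 min RT with compound and PIP2 (MgCl2 40 mM, DTT 5 mM), then 30 min RT kinase reaction at 10 μM ATP and 10 μM PIP2.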

[2] = system: PC3 cells; assay: XTT assay for cell viability, PC3 cells; assay type: cell-based, human; conditions: Homo sapiens, PC-3, cell viability
How it was run: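 PC3 cells seeded at 1000 cells/well, grown 24 h, then exposed to serial dilutions of compound for 96 h. Viability read by XTT dye at 37° C, absorbance 465 nm. EC50 from sigmoidal dose-response fit.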

[3] = system: pS6RP(S235/236), PC3 cells; assay: In-cell Western assay, pS6RP(S235/236) in PC3 cells; assay type: cell-based, human; conditions: Homo sapiens, PC-3, In-cell Western
How it was run: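 Overnight-seeded PC3 cells were treated 2 h with serially diluted compound, then fixed and immunostained with phospho-specific primary antibodies and Eu-labelled secondary. Time-resolved Eu signal read at 615 nm (ex 340 nm), normalised by Hoechst 33258 staining (ex 355/em 460 nm); IC50 from sigmoidal dose-response fit.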

[4] = system: pAKT(5473) (phosphorylated at serine 473), PC3 cells; assay: In-cell Western assay, pAKT(5473) in PC3 cells; assay type: cell-based; conditions: Homo sapiens, PC-3, In-cell Western, read-out: pAkt-S473
Protocol: (§1) Cells from human prostate cancer cell line PC3 (American Type Culture Collection (ATCC), Manassas, Va. 20108 USA) were seeded at an optimal density of 22,000 cell/well in 96-well plates containing Ham's F12K medium (90 μL) and incubated overnight. The compound dilutions were carried out in 100% DMSO followed by a dilution in the medium. Test compounds were added in serial dilutions to the wells and incubated for 2 h. The cells were washed and fixed with 4% paraformaldehyde. After incubation at room temperature for 1 h in the dark, blocking was done for 2 h at room temperature. Primary antibodies for phosphorylated (p) AKT(5473) (phosphorylated at serine 473), pAKT(T308) (phosphorylated at threonine 308) and for pS6RP(S235/236) (phosphorylated at serine 235/236) (commercially available from Cell Signaling Technology®, whose protocol was followed for the in-cell western assay, were diluted to the required concentration and added to the corresponding wells followed by overnight incubation at 4° C. Eu-labeled rabbit (PE) (Perkin-Elmer USA catalog #AD0106) secondary antibody was added and incubated for 2 h at room temperature. Delfia® enhancement solution (cat #1244-105, Perkin Elmer USA) was subsequently added to the plate before taking the reading at 615 nm with excitation wavelength of 340 nm, after which 0.5 μg/mL of Hoechst® 33258 dye (Catalog #86140-5, Sigma) was added to the plate and fluorescence emission was read at 460 nm with 355 nm excitation, to evaluate the correction factor. IC50 values were calculated using a sigmoidal dose-response curve fit in GraphPad Prism® v5 software.

[5] = system: pAKT(T308) (phosphorylated at threonine 308), PC3 cells; assay: In-cell Western assay, pAKT(T308) in PC3 cells; assay type: cell-based; conditions: Homo sapiens, PC-3, In-cell Western
Protocol: as §1

[6] = molecular target: T2, mTOR kinase (Homo sapiens, UniProt P42345); assay: mTOR kinase TR-FRET assay; assay type: biochemical; conditions: read-out: mTO R
T2 construct: purchased Millipore, USA
How it was run: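 TR-FRET read-out (340 nm excitation, 615/665 nm emission) of Thr389 phosphorylation of a ULight-labeled p70 S6K peptide (50 nM) by mTOR, 20 μM ATP, 60 min room temperature after 60 min compound preincubation. Buffer HEPES pH 7.5 with MnCl2, EGTA; IC50 by sigmoidal dose-response.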

T1 sequence (P42336 whole entry): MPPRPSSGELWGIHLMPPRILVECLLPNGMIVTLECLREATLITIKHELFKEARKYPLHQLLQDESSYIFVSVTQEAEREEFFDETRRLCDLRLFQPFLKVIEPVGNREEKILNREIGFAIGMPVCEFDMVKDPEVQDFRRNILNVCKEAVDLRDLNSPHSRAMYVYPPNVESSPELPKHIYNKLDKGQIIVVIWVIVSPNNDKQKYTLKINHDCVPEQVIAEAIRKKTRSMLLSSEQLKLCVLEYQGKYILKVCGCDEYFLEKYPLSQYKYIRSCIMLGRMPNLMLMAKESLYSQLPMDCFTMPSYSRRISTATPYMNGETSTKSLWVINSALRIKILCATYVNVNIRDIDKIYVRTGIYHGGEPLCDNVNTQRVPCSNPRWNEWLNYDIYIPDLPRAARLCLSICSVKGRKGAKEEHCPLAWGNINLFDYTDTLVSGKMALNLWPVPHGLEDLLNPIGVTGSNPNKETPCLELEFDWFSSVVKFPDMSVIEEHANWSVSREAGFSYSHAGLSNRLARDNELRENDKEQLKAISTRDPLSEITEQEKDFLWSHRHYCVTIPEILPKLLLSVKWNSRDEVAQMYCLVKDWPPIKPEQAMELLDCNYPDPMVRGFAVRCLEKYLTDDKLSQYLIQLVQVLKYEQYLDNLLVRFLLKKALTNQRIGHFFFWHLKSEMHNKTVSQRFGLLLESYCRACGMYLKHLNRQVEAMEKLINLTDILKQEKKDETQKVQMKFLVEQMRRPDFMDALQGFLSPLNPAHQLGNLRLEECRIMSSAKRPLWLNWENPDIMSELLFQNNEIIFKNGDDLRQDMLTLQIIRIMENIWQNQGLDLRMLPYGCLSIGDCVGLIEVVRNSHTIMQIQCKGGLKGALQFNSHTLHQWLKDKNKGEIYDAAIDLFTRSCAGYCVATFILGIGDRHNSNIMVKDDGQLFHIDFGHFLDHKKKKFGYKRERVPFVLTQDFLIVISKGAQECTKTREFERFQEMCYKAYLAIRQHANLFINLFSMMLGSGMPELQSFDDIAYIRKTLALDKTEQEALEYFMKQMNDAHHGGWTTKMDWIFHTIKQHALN
T1 sequence (P27986 whole entry partner): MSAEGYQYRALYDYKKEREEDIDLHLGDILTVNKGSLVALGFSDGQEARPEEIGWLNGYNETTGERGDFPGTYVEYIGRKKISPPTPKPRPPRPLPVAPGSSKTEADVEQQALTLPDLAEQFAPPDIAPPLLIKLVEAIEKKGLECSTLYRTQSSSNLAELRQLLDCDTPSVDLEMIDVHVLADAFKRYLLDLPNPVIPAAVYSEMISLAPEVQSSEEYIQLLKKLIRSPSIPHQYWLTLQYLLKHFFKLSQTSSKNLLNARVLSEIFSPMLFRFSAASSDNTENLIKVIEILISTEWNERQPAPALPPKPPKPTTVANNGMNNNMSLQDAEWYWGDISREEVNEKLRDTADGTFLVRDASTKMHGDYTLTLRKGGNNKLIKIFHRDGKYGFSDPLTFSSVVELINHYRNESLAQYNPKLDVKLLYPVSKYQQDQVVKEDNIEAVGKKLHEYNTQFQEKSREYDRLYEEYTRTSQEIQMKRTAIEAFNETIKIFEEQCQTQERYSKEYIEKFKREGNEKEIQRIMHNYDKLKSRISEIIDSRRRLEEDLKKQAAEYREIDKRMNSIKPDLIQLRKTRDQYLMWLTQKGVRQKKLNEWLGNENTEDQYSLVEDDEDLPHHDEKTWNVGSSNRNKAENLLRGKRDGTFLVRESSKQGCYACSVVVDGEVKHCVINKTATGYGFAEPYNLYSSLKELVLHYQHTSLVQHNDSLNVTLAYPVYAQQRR

SMILES | IC50 [1] | IC50 [2] | IC50 [3] | IC50 [4] | IC50 [5] | IC50 [6]
CN(C)C(=O)c1ccc(NC(=O)Nc2ccc(-c3nc(N4CCOCC4)c4ccc(-c5cccc(S(C)(=O)=O)c5)cc4n3)cc2)cc1 [Example 19, 4-(3-{4-[7-(3-methanesulfonyl-phenyl)-4-morpholin-4-yl-quinazolin-2-yl]-phenyl}-ureido)-N,N-dimethyl-benzamide] | < 50 nM | < 100 nM | < 100 nM | 100 to 500 nM | 100 to 500 nM | < 50 nM
CNC(=O)c1ccc(NC(=O)Nc2ccc(-c3nc(N4CCOCC4)c4ccc(-c5cccc(S(C)(=O)=O)c5)cc4n3)cc2)cc1 [Example 20, 4-(3-{4-[7-(3-methanesulfonyl-phenyl)-4-morpholin-4-yl-quinazolin-2-yl]-phenyl}-ureido)-N-methyl-benzamide] | < 50 nM | 100 to 500 nM | 100 to 500 nM | 100 to 500 nM | 100 to 500 nM | < 50 nM
CN(C)C(=O)c1ccc(NC(=O)Nc2ccc(-c3nc(N4CCOCC4)c4ccc(-c5cnn(C)c5)cc4n3)cc2)cc1 [Example 22, N,N-dimethyl-4-(3-{4-[7-(1-methyl-1H-pyrazol-4-yl)-4-morpholin-4-yl-quinazolin-2-yl]-phenyl}-ureido)-benzamide] | < 50 nM | < 100 nM | < 100 nM | 100 to 500 nM | 100 to 500 nM | < 50 nM
CN(C)C(=O)c1ccc(NC(=O)Nc2ccc(-c3nc(N4CCOCC4)c4ccc(-c5cccnc5)cc4n3)cc2)cc1 [Example 24, N,N-dimethyl-4-{3-[4-(4-morpholin-4-yl-7-pyridin-3-yl-quinazolin-2-yl)-phenyl]-ureido}-benzamide] | < 50 nM | < 100 nM | < 100 nM | 100 to 500 nM | 100 to 500 nM | < 50 nM
CN1CCN(C(=O)c2ccc(NC(=O)Nc3ccc(-c4nc(N5CCOCC5)c5ccc(-c6cccnc6)cc5n4)cc3)cc2)CC1 [Example 33, 1-[4-(4-methyl-piperazine-1-carbonyl)-phenyl]-3-[4-(4-morpholin-4-yl-7-pyridin-3-yl-quinazolin-2-yl)-phenyl]-urea] | < 50 nM | < 100 nM | < 100 nM | 100 to 500 nM | 100 to 500 nM | < 50 nM
CN(C)C(=O)c1ccc(NC(=O)Nc2ccc(-c3nc(N4CCOCC4)c4cc(F)c(-c5cnn(C)c5)cc4n3)cc2)cc1 [Example 35, 4-(3-{4-[6-Fluoro-7-(1-methyl-1H-pyrazol-4-yl)-4-morpholin-4-yl-quinazolin-2-yl]-phenyl}-ureido)-N,N-dimethyl-benzamide] | < 50 nM | < 100 nM | < 100 nM | 100 to 500 nM | 100 to 500 nM | < 50 nM
CN(C)C(=O)c1ccc(NC(=O)Nc2ccc(-c3nc(N4CCOCC4)c4ncc(-c5cnn(C)c5)cc4n3)cc2)cc1 [Example 42, N,N-dimethyl-4-(3-{4-[7-(1-methyl-1H-pyrazol-4-yl)-4-morpholin-4-yl-pyrido[3,2-d]pyrimidin-2-yl]-phenyl}-ureido)-benzamide] | < 50 nM | < 100 nM | 100 to 500 nM | < 100 nM | 100 to 500 nM | < 50 nM
CN(C)CCN(C)C(=O)c1ccc(NC(=O)Nc2ccc(-c3nc(N4CCOCC4)c4ccc(-c5cncnc5)cc4n3)cc2)cc1 [Example 44, N-(2-dimethylamino-ethyl)-N-methyl-4-{3-[4-(4-morpholin-4-yl-7-pyrimidin-5-yl-quinazolin-2-yl)-phenyl]-ureido}-benzamide] | < 50 nM | < 100 nM | < 100 nM | < 100 nM | < 100 nM | < 50 nM
CN(C)C(=O)c1ccc(NC(=O)Nc2ccc(-c3nc(N4CCOCC4)c4ncc(-c5cccnc5)cc4n3)cc2)cc1 [Example 46, N,N-dimethyl-4-{3-[4-(4-morpholin-4-yl-7-pyridin-3-yl-pyrido[3,2-d]pyrimidin-2-yl)-phenyl]-ureido}-benzamide] | < 50 nM | < 100 nM | < 100 nM | < 100 nM | 100 to 500 nM | < 50 nM
CC(=O)Nc1cccc(-c2ccc3c(N4CCOCC4)nc(-c4ccc(NC(=O)Nc5ccc(C(=O)N(C)C)cc5)cc4)nc3c2)c1 [Example 49, 4-(3-{4-[7-(3-acetylamino-phenyl)-4-morpholin-4-yl-quinazolin-2-yl]-phenyl}-ureido)-N,N-dimethyl-benzamide] | < 50 nM | < 100 nM | < 100 nM | 100 to 500 nM | 100 to 500 nM | < 50 nM
CN(C)C(=O)c1ccc(NC(=O)Nc2ccc(-c3nc(N4CCOCC4)c4ccc(-c5cccc(S(C)(=O)=O)c5)cc4n3)cc2F)cc1 [Example 118, 4-(3-(2-fluoro-4-(7-(3-(methylsulfonyl)phenyl)-4-morpholino-quinazolin-2-yl)phenyl)ureido)-N,N-dimethyl-benzamide] | < 50 nM | 201 to 10000 nM | 201 to 10000 nM | 501 to 5000 nM | – | < 50 nM

Next, values leading:

IC50 [1] | IC50 [2] | IC50 [3] | IC50 [4] | IC50 [5] | IC50 [6] | SMILES
< 50 nM | < 100 nM | – | < 100 nM | – | 201 to 10000 nM | CN(C)C(=O)c1ccc(NC(=O)Nc2ccc(-c3nc(N4CCOCC4)c4ccc(-c5ccco5)cc4n3)cn2)cc1 [Example 159, 4-(3-(5-(7-(furan-2-yl)-4-morpholino-quinazolin-2-yl)pyridin-2-yl)ureido)-N,N-dimethyl-benzamide]
< 50 nM | < 100 nM | – | 501 to 5000 nM | – | 50 to 200 nM | CN(C)C(=O)c1ccc(NC(=O)Nc2ccc(-c3nc(N4CCOCC4)c4ccc(-c5ccco5)cc4n3)cc2)c(F)c1 [Example 160, 3-fluoro-4-(3-(4-(7-(furan-2-yl)-4-morpholino-quinazolin-2-yl)phenyl)ureido)-N,N-dimethyl-benzamide]
< 50 nM | 201 to 10000 nM | – | 501 to 5000 nM | – | < 50 nM | CN(C)C(=O)c1ccc(NC(=O)Nc2ccc(-c3nc(N4CCOCC4)c4ccc(-c5ccccn5)cc4n3)cc2)cc1F [Example 267, 2-fluoro-N,N-dimethyl-4-(3-(4-(4-morpholino-7-(pyridin-2-yl)quinazolin-2-yl)phenyl)ureido)-benzamide]
< 50 nM | 201 to 10000 nM | – | 501 to 5000 nM | – | < 50 nM | CN(C)C(=O)c1ccc(NC(=O)Nc2ccc(-c3nc(N4CCOCC4)c4ccc(-c5ccccn5)cc4n3)c(F)c2)cc1 [Example 268, 4-(3-(3-fluoro-4-(4-morpholino-7-(pyridin-2-yl)quinazolin-2-yl)phenyl)ureido)-N,N-dimethyl-benzamide]
< 50 nM | 100 to 500 nM | 100 to 500 nM | – | 501 to 5000 nM | < 50 nM | CC(=O)Nc1ccc(NC(=O)Nc2ccc(-c3nc(N4CCOCC4)c4ccc(-c5cncnc5)cc4n3)cc2)cc1 [Example 291, N-(4-(3-(4-(4-morpholino-7-(pyrimidin-5-yl)quinazolin-2-yl)phenyl)ureido)phenyl)-acetamide]
